Results as given in ChEMBL document CHEMBL3991601, “The target landscape of clinical kinase drugs” (Science, 2017).
Calls of active or inactive are those of the source.

Key:
[1] = molecular target: Cyclin-dependent kinase 5 (Homo sapiens, UniProt Q00535)
[2] = molecular target: T1, Delta(24)-sterol reductase (Homo sapiens, UniProt Q15392)
T1 sequence (Q15392 whole entry): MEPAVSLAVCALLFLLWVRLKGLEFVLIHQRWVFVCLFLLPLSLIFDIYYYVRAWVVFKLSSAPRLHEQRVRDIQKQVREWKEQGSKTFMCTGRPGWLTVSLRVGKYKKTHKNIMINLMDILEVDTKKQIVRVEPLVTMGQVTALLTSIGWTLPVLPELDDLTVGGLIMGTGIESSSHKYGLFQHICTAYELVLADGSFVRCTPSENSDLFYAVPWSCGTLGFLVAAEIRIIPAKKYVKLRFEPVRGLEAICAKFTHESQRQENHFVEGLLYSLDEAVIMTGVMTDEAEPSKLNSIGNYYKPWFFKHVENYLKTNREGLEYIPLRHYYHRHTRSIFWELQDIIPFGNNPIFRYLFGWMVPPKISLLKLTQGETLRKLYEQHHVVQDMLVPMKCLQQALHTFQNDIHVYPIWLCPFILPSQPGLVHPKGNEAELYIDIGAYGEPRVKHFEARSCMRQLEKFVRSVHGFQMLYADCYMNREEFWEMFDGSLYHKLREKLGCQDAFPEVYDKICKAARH

[3] = molecular target: T2, Phenylalanine--tRNA ligase beta subunit (Homo sapiens, UniProt Q9NSD9)
T2 sequence (Q9NSD9 whole entry): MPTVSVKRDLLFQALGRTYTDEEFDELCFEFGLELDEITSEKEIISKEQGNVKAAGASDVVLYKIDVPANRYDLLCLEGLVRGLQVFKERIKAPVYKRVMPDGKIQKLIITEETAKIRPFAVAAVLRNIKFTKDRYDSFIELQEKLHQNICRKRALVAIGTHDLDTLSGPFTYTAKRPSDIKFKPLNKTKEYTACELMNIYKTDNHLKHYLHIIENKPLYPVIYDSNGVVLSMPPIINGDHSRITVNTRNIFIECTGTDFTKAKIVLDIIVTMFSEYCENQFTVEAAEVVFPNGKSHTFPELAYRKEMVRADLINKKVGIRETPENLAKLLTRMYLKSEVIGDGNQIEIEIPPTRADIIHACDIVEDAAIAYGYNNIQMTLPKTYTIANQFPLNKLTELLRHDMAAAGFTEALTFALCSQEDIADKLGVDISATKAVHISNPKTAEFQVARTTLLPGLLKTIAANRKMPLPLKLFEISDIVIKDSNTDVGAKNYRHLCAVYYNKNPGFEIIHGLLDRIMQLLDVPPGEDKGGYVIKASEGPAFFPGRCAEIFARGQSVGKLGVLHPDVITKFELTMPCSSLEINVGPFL

[4] = molecular target: T3, MAP/microtubule affinity-regulating kinase 4 (Homo sapiens, UniProt Q96L34)
T3 sequence (Q96L34 whole entry): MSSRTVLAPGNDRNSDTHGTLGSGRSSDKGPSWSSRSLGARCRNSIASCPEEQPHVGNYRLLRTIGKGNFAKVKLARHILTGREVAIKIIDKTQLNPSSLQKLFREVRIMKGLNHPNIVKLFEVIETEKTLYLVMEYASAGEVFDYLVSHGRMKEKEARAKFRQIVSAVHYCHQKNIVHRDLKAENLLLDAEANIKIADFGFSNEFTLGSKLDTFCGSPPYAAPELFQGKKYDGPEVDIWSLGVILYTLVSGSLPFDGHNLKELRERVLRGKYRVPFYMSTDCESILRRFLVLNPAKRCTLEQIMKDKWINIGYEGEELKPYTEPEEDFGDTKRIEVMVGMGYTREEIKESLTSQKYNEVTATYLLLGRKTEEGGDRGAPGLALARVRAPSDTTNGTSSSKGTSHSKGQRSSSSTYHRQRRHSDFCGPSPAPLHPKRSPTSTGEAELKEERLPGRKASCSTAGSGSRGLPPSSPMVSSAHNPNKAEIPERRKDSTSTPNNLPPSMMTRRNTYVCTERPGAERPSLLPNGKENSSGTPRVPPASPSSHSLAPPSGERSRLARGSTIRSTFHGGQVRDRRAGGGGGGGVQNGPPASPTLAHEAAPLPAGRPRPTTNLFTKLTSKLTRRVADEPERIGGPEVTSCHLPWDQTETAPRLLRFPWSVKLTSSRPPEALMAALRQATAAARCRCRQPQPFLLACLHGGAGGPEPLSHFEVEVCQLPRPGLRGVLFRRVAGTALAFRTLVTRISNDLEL

[5] = molecular target: Serine/threonine-protein kinase pim-1 (Homo sapiens, UniProt P11309)
Sequence of Serine/threonine-protein kinase pim-1 (P11309 whole entry): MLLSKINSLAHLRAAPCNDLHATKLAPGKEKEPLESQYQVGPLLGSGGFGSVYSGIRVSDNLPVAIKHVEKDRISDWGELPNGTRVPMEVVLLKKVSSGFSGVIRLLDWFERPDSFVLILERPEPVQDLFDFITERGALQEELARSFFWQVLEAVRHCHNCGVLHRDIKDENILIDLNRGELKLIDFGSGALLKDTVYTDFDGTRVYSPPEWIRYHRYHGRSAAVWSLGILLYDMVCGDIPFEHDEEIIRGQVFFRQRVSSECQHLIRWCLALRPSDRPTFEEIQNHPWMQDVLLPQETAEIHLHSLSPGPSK

[6] = molecular target: Structural maintenance of chromosomes protein 2 (Homo sapiens, UniProt O95347)
Sequence of Structural maintenance of chromosomes protein 2 (O95347 whole entry): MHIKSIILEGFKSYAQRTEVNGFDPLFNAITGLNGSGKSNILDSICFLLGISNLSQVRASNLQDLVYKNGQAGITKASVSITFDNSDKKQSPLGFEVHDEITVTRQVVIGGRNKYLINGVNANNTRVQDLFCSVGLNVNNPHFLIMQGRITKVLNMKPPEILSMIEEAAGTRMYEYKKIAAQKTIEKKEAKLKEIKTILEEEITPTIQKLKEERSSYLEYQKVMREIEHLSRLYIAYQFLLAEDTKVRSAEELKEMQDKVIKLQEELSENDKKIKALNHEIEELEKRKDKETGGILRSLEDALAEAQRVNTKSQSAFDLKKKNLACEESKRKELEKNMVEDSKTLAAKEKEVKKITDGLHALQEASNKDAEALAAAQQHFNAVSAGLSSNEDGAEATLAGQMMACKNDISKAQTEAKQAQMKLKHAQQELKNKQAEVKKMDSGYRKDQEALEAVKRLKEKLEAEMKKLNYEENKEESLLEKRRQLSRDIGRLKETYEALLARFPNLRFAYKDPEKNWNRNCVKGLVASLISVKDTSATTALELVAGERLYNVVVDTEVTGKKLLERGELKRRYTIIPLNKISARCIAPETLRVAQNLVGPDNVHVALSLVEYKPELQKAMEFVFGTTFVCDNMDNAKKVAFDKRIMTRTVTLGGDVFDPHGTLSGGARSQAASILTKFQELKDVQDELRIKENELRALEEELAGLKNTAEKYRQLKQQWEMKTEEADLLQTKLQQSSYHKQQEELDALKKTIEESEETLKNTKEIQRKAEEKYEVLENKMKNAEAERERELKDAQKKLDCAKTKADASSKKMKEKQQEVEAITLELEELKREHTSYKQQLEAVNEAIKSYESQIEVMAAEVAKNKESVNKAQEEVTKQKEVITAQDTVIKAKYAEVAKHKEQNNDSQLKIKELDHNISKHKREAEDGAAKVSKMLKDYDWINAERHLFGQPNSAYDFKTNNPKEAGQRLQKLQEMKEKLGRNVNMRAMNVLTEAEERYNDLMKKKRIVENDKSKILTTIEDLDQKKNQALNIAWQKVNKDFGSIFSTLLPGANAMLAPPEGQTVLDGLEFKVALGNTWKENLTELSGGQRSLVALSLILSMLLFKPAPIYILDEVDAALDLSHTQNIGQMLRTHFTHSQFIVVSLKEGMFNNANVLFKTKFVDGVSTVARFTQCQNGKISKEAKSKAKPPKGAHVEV
Further: in the data inactive means no Kd found up to 30 µM.

Sequence of Cyclin-dependent kinase 5 (Q00535 whole entry): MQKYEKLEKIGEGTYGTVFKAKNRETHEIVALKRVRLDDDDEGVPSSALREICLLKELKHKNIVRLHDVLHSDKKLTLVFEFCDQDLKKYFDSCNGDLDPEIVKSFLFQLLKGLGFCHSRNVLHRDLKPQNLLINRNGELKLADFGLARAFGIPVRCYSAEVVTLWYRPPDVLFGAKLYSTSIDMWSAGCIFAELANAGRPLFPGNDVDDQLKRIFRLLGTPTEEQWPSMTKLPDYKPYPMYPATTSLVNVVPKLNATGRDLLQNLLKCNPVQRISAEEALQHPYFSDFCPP

Kd [1]	Kd [2]	Kd [3]	Kd [4]	Kd [5]	Kd [6]	Structure (SMILES)
> 30 µM (inactive)	> 30 µM (inactive)	> 30 µM (inactive)	> 30 µM (inactive)	> 30 µM (inactive)	> 30 µM (inactive)	COc1cc2nccc(Oc3ccc(NC(=O)Nc4cc(C)on4)c(Cl)c3)c2cc1OC [TIVOZANIB]
> 30 µM (inactive)	> 30 µM (inactive)	> 30 µM (inactive)	> 30 µM (inactive)	> 30 µM (inactive)	> 30 µM (inactive)	CC(=O)Nc1cccc(-n2c(=O)n(C3CC3)c(=O)c3c(Nc4ccc(I)cc4F)n(C)c(=O)c(C)c32)c1 [TRAMETINIB]
> 30 µM (inactive)	> 30 µM (inactive)	> 30 µM (inactive)	> 30 µM (inactive)	> 30 µM (inactive)	> 30 µM (inactive)	CCCS(=O)(=O)Nc1ccc(F)c(C(=O)c2c[nH]c3ncc(-c4ccc(Cl)cc4)cc23)c1F [VEMURAFENIB]
> 30 µM (inactive)	> 30 µM (inactive)	> 30 µM (inactive)	> 30 µM (inactive)	> 30 µM (inactive)	> 30 µM (inactive)	CC[C@@H]1C(=O)N(C)c2cnc(Nc3ccc(C(=O)N[C@H]4CC[C@H](N5CCN(CC6CC6)CC5)CC4)cc3OC)nc2N1C(C)C [VOLASERTIB]
> 30 µM (inactive)	> 30 µM (inactive)	> 30 µM (inactive)	> 30 µM (inactive)	> 30 µM (inactive)	> 30 µM (inactive)	CCn1c(=O)c(-c2cc[nH]n2)cc2c(C)nc(N)nc21 [VOXTALISIB]
> 30 µM (inactive)	> 30 µM (inactive)	> 30 µM (inactive)	> 30 µM (inactive)	> 30 µM (inactive)	> 30 µM (inactive)	O=C(Nc1ccc(-c2ccnc(Nc3ccc(N4CCOCC4)cc3)n2)cc1)C1CCCN1 (stereo unspecified) [XL-019]
